Target: Endothelin-converting enzyme 1 (Cavia porcellus)
Test: In vitro inhibition of phosphoramidon-sensitive membrane bound zinc metalloprotease Endothelin-converting enzyme from partially purified guinea pig lungs

Row | SMILES | IC50 [µM]
1 | O=C(N[C@@H](Cc1ccccc1)P(=O)(O)CC1(C(=O)N[C@@H](Cc2ccc(O)cc2)C(=O)O)CCCC1)OCc1ccccc1 [(S)-2-({1-[((R)-1-Benzyloxycarbonylamino-2-phenyl-ethyl)-hydroxy-phosphinoylmethyl]-cyclopentanecarbonyl}-amino)-3-(4-hydroxy-phenyl)-propionic acid] | 0.12
2 | CC(C)(C)C(=O)N[C@@H](Cc1ccccc1)P(=O)(O)CC1(C(=O)N[C@@H](Cc2c[nH]c3ccccc23)C(=O)O)CCCC1 [(S)-2-[(1-{[(R)-1-(2,2-Dimethyl-propionylamino)-2-phenyl-ethyl]-hydroxy-phosphinoylmethyl}-cyclopentanecarbonyl)-amino]-3-(1H-indol-3-yl)-propionic acid] | 0.55
3 | NC(=O)C[C@H](NC(=O)C1(CP(=O)(O)[C@H](Cc2ccccc2)NC(=O)OCc2ccccc2)CCCC1)C(=O)O [(S)-2-({1-[((R)-1-Benzyloxycarbonylamino-2-phenyl-ethyl)-hydroxy-phosphinoylmethyl]-cyclopentanecarbonyl}-amino)-succinamic acid] | > 1
4 | CC(=O)N[C@@H](Cc1ccccc1)P(=O)(O)CC1(C(=O)N[C@@H](Cc2c[nH]c3ccccc23)C(=O)O)CCCC1 [(S)-2-({1-[((R)-1-Acetylamino-2-phenyl-ethyl)-hydroxy-phosphinoylmethyl]-cyclopentanecarbonyl}-amino)-3-(1H-indol-3-yl)-propionic acid] | 0.6
5 | O=C(N[C@H](Cc1ccccc1)P(=O)(O)CC1(C(=O)N[C@@H](Cc2c[nH]c3ccccc23)C(=O)O)CCCC1)OCc1ccccc1 [(S)-2-({1-[((S)-1-Benzyloxycarbonylamino-2-phenyl-ethyl)-hydroxy-phosphinoylmethyl]-cyclopentanecarbonyl}-amino)-3-(1H-indol-3-yl)-propionic acid] | > 10
6 | CC(C)C[C@H](NP(=O)(O)O)C(=O)N[C@@H](Cc1c[nH]c2ccccc12)C(=O)O [(S)-3-(1H-Indol-3-yl)-2-((S)-4-methyl-2-phosphonoamino-pentanoylamino)-propionic acid] | 1.5
7 | NCc1ccc(C(=O)N[C@@H](Cc2ccccc2)P(=O)(O)CC2(C(=O)N[C@@H](Cc3c[nH]c4ccccc34)C(=O)O)CCCC2)cc1 [(S)-2-[(1-{[(R)-1-(4-Aminomethyl-benzoylamino)-2-phenyl-ethyl]-hydroxy-phosphinoylmethyl}-cyclopentanecarbonyl)-amino]-3-(1H-indol-3-yl)-propionic acid] | 0.09
8 | O=C(N[C@@H](Cc1ccccc1)P(=O)(O)CC1(C(=O)N[C@@H](Cc2c[nH]c3ccccc23)C(=O)O)CCCC1)c1ccccc1 [(S)-2-({1-[((R)-1-Benzoylamino-2-phenyl-ethyl)-hydroxy-phosphinoylmethyl]-cyclopentanecarbonyl}-amino)-3-(1H-indol-3-yl)-propionic acid] | 0.25
9 | COc1ccc(C(=O)N[C@@H](Cc2ccccc2)P(=O)(O)CC2(C(=O)N[C@@H](Cc3c[nH]c4ccccc34)C(=O)O)CCCC2)cc1 [(S)-2-[(1-{Hydroxy-[(R)-1-(4-methoxy-benzoylamino)-2-phenyl-ethyl]-phosphinoylmethyl}-cyclopentanecarbonyl)-amino]-3-(1H-indol-3-yl)-propionic acid] | 0.16
10 | O=C(N[C@@H](Cc1ccccc1)P(=O)(O)CC1(C(=O)N[C@@H](Cc2c[nH]c3ccccc23)C(=O)O)CCCC1)OCc1ccccc1 [(S)-2-({1-[((R)-1-Benzyloxycarbonylamino-2-phenyl-ethyl)-hydroxy-phosphinoylmethyl]-cyclopentanecarbonyl}-amino)-3-(1H-indol-3-yl)-propionic acid] | 0.19

From BindingDB's records for doi:10.1016/0960-894X(96)00297-1 (1996)
